Reference: patent US11519911B2, “ALX receptor ligands define a biochemical endotype for inflammation-based diseases” (THE BRIGHAM AND WOMEN'S HOSPITAL, INC., priority 2017, dated 2022)
“Also recorded” adds a separate entry of the source.

Assays:
[1] = molecular target: T1, ALX/FPR2 receptors (ALX) (Homo sapiens, UniProt P25090); settings: high affinity cognate receptors; reference (16); cited from earlier work
T1 sequence (P25090 1-351): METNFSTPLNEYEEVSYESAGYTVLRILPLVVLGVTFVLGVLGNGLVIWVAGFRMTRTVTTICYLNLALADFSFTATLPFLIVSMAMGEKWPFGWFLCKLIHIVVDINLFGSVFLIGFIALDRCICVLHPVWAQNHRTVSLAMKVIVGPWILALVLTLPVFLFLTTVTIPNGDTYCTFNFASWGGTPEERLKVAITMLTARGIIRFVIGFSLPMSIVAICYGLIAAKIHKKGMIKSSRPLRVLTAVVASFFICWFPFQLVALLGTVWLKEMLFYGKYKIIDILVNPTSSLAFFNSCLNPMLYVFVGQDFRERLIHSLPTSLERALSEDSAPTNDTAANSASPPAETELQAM

[2] = molecular target: T1, ALX/FPR2 receptors (ALX); experiment: ALX-dependent in vitro reporter assay: IL-8 production by A549 cells expressing human ALX receptor (ELISA); format: cell-based; parameters: expressed in transfected cells; host or cells: A549 human lung epithelial cells, stably transfected
Description: FIG. 6 A-D. SAA and 15-epi-LXA4 signaling via ALX receptors regulates production of the neutrophil chemoattractant IL-8 A549 human epithelial cells expressing human ALX receptors (A549^hALX) were exposed to BALF from HD, NSA, or SA subjects (24 h, 37° C., 5% CO2) and IL-8 levels were measured in the cell-free supernatant by ELISA (see Methods). (A) Mean levels of LXA4, 15-epi-LXA4 and SAA in BALF from n=15 subjects used for A549^hALX cell incubations are shown in stacked bar graphs and the relative proportions are noted in pie charts. (B) IL-8 production by A549^hALX cells was measured after incubation with saline control or SAA (2.5 ng/ml or 10 ng/ml) for 24 hours. (C) IL-8 production by A549^hALX cells was measured after 24 hours of exposure to BALF from HD (n=3), NSA (n=6) or SA (n=5) and is expressed as an increase relative to saline controls. Incubations with BALF without an increase in IL-8 production relative to saline control were assigned a value of zero. (D) A549^hALX epithelial cells were exposed to BALF from subjects with endogenous levels that were LXA4^highSAA^low (n=5) or LXA4^lowSAA^high (n=6) followed by exposure to exogenous 15-epi-LXA4 (100 nM). % Inhibition of IL-8 production after 15-epi-LXA4 exposure was calculated. *p<0.05, ****p<0.001 by (B) one-way ANOVA (C) Kruskal-Wallis test and (D) Mann-Whitney test. ALX, airway lipoxin A4 receptor; LXA4, lipoxin A4; 15-epi-LXA4, 15-epimer lipoxin A4; SAA, serum amyloid A; HD, healthy donors; NSA, non-severe asthma; SA, severe asthma; IL-8, interleukin-8; BALF, bronchoalveolar lavage fluid.
To determine the functional relationship for these ALX receptor ligands, we next turned to an ALX-dependent in vitro reporter assay that we have previously qualified in chronic obstructive pulmonary disease (18). A549 lung epithelial cells were stably transfected to express the human ALX/FPR2 receptor (hALX). […]
A549 transfected to stably express the human ALX receptor were used (as in (18)). […] IL-8 levels in the supernatants were measured by ELISA (R&D). […]

[3] = BALF ALX ligand levels after a single dose of intramuscular triamcinolone in asthma subjects; format: in vivo, human; settings: measured 3 to 6 weeks after, SA or NSA subjects
Description: Subjects 13 years of age and older with asthma and healthy control subjects were recruited between November 2012 and February 2015 by seven geographically dispersed, research centers in the USA. European Respiratory Society/American Thoracic Society guidelines were used to categorize subjects as SA or NSA (48). Control subjects were individuals who reported general health and were non-smokers with no history of lung disease, atopic disease or allergic rhinitis. BAL was performed with three 50 mL aliquots of warm saline, and BALF were recovered by hand suction. Subjects received intramuscular triamcinolone (1 mg/kg up to a maximum dose of 40 mg) and some subjects agreed to undergo a second bronchoscopy 3 to 6 weeks later and BAL samples were collected in the same manner. BAL cells were enumerated and differential leukocyte counts determined. Cell-free BALF supernatant was divided into several aliquots. One aliquot of BALF (1 ml) was directly mixed with iced methanol (2 ml, for 1:2, vol/vol) before storing at −80° C. The other aliquots were directly stored at −80° C. […]
LXA4 and 15-epi-LXA4 levels in the BALF were measured by ELISA (Neogen, Lexington, Ky.). […] SAA and ANXA1 levels were measured by ELISA in aliquots of BALF stored in the absence of methanol (SAA: Abazyme, Needham, Mass.; ANXA1: Cloud-Clone, Houston, Tex.). […]

For 15-epimer lipoxin A4 [15-epi-LXA4], the Kd [1] is listed as roughly 1 nM, the “Inhibition of IL-8 production by A549^hALX cells conditioned with BALF” value ([2]; exogenous 15-epi-LXA4 100 nM, cells exposed to BALF) is listed as “inhibited A549^hALX cell IL-8 production” and the “Inhibition of IL-8 production by A549^hALX cells conditioned with BALF from LXA4^lowSAA^high subjects” value ([2]; exogenous 15-epi-LXA4 100 nM, compared with LXA4^highSAA^low BALF) is listed as “maximal inhibition of IL-8 production”.

For `CCCCC[C@H](O)/C=C/C=C\C=C\C=C\[C@@H](O)[C@@H](O)CCCC(=O)O` [LXA4, Lipoxin A4], the Kd [1] is given as roughly 1 nM.

For `C[C@]12C=CC(=O)C=C1CC[C@H]1[C@@H]3C[C@@H](O)[C@](O)(C(=O)CO)[C@@]3(C)C[C@H](O)[C@@]12F` [triamcinolone], the “Change in BALF levels of LXA4, 15-epi LXA4 and SAA” value [3] was “did not result in discernible changes; also recorded: not significantly altered”.

B1: SAA: acute phase protein, pro-inflammatory ALX peptide ligand; recombinant human SAA (Peprotech) (protein, UniProt P0DJI8 19-122, looked up)
Serum amyloid A-1 protein: RSFFSFLGEAFDGARDMWRAYSDMREANYIGSDKYFHARGNYDAAKRGPGGAWAAEVITDARENIQRFFGHGAEDSLADQAANEWGRSGKDPNHFRPAGLPEKY
In the case of B1, the “IL-8 production by A549^hALX cells” value ([2]; recombinant human SAA 0-10 ng/ml, 24 h, vs saline control) is reported as “concentration-dependent (0-10 ng/ml) increase in IL-8 production”.
